What was measured:
[1] = target: Proto-oncogene tyrosine-protein kinase Src (Gallus gallus) (UniProt P00523); assay: Percentage Src activity remaining in the presence of 0.1uM inhibitor
[2] = target: MAP kinase-interacting serine/threonine-protein kinase 2 (Homo sapiens) (UniProt Q9HBH9); assay: Percentage MNK2 activity remaining in the presence of 0.1uM inhibitor
[3] = target: cAMP-dependent protein kinase catalytic subunit alpha (Homo sapiens, UniProt P17612); assay: Percentage PKA activity remaining in the presence of 0.1uM inhibitor
[4] = target: Calcium/calmodulin-dependent protein kinase kinase 2 (Homo sapiens) (UniProt Q96RR4); assay: Percentage CaMKKbeta activity remaining in the presence of 0.1uM inhibitor
[5] = target: Calcium/calmodulin-dependent protein kinase kinase 1 (Homo sapiens) (UniProt Q8N5S9); assay: Percentage CaMKKalpha activity remaining in the presence of 0.1uM inhibitor
[6] = organism: Rattus norvegicus; assay: Percentage AMPK activity remaining in the presence of 0.1uM inhibitor
[7] = target: MAP kinase-activated protein kinase 3 (Homo sapiens) (UniProt Q16644); assay: Percentage MAPKAPK3 activity remaining in the presence of 0.1uM inhibitor
[8] = target: T1, Mitogen-activated protein kinase 15 (Homo sapiens) (UniProt Q8TD08); assay: Percentage ERK8 activity remaining in the presence of 0.1uM inhibitor
T1 sequence (whole entry): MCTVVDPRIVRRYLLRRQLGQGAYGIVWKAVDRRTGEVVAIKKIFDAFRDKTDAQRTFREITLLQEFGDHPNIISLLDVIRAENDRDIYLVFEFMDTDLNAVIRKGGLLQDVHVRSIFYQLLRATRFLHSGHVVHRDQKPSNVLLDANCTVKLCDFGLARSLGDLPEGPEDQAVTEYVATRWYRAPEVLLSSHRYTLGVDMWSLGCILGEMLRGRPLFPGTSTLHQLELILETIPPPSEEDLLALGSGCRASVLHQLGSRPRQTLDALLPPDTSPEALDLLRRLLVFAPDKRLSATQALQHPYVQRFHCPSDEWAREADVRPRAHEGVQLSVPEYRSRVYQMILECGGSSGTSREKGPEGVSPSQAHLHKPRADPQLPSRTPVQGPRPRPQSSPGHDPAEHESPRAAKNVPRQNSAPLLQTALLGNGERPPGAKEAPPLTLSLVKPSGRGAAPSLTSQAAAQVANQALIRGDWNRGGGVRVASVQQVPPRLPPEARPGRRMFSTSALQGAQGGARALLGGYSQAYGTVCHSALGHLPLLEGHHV

[9] = target: Ribosomal protein S6 kinase alpha-1 (Homo sapiens) (UniProt Q15418); assay: Percentage RSK1 activity remaining in the presence of 0.1uM inhibitor
[10] = target: T2, Serine/threonine-protein kinase Nek2 (Homo sapiens) (UniProt P51955); assay: Percentage NEK2a activity remaining in the presence of 0.1uM inhibitor
T2 sequence (whole entry): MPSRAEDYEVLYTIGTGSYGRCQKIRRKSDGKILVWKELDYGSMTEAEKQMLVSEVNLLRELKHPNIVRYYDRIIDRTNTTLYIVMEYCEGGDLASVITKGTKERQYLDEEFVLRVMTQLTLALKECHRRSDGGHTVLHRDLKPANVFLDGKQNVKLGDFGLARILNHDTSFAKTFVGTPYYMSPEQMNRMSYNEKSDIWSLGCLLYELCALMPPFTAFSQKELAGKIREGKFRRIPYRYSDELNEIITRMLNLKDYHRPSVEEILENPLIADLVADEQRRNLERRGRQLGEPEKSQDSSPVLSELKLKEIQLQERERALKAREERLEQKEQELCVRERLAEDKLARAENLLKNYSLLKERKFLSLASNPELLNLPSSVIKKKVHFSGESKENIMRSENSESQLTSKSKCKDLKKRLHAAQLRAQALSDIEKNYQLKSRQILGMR

[11] = target: Serine/threonine-protein kinase Nek7 (Homo sapiens) (UniProt Q8TDX7); assay: Percentage NEK7 activity remaining in the presence of 0.1uM inhibitor
[12] = target: Mitogen-activated protein kinase 1 (Homo sapiens) (UniProt P28482); assay: Percentage ERK2 activity remaining in the presence of 0.1uM inhibitor
[13] = target: SRSF protein kinase 1 (Homo sapiens) (UniProt Q96SB4); assay: Percentage SRPK1 activity remaining in the presence of 0.1uM inhibitor
[14] = target: T3, Serine/threonine-protein kinase Chk1 (Homo sapiens) (UniProt O14757); assay: Percentage CHK1 activity remaining in the presence of 0.1uM inhibitor
T3 sequence (whole entry): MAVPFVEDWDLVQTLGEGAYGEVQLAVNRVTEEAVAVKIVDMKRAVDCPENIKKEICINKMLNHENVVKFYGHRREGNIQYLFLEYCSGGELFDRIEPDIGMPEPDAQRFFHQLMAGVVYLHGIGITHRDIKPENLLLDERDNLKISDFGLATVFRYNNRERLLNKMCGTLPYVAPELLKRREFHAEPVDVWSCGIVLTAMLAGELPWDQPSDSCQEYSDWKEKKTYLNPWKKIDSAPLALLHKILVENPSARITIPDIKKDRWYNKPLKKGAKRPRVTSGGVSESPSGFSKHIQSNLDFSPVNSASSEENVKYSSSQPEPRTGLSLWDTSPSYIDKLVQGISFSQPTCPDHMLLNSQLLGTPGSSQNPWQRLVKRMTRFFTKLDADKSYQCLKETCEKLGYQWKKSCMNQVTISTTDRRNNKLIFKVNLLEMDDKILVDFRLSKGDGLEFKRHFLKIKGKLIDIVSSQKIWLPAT

[15] = target: T4, Aurora kinase C (Homo sapiens) (UniProt Q9UQB9); assay: Percentage Aurora C activity remaining in the presence of 0.1uM inhibitor
T4 sequence (whole entry): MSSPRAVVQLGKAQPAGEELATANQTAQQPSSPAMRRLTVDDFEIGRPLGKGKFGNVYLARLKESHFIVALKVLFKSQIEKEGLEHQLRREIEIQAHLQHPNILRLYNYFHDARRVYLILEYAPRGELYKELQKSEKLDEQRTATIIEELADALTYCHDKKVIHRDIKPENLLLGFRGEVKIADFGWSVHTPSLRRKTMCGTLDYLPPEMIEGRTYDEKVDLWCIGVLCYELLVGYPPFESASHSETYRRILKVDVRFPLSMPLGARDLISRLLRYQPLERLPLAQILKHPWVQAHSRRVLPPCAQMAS

[16] = organism: Homo sapiens; assay: Percentage PHK activity remaining in the presence of 0.1uM inhibitor
[17] = target: Serine/threonine-protein kinase PAK 5 (Homo sapiens) (UniProt Q9P286); assay: Percentage PAK5 activity remaining in the presence of 0.1uM inhibitor
[18] = target: Protein kinase C alpha type (Homo sapiens) (UniProt P17252); assay: Percentage PKCalpha activity remaining in the presence of 0.1uM inhibitor

Serine/threonine-protein kinase PAK 5 (Homo sapiens), sequence (Q9P286 whole entry, looked up): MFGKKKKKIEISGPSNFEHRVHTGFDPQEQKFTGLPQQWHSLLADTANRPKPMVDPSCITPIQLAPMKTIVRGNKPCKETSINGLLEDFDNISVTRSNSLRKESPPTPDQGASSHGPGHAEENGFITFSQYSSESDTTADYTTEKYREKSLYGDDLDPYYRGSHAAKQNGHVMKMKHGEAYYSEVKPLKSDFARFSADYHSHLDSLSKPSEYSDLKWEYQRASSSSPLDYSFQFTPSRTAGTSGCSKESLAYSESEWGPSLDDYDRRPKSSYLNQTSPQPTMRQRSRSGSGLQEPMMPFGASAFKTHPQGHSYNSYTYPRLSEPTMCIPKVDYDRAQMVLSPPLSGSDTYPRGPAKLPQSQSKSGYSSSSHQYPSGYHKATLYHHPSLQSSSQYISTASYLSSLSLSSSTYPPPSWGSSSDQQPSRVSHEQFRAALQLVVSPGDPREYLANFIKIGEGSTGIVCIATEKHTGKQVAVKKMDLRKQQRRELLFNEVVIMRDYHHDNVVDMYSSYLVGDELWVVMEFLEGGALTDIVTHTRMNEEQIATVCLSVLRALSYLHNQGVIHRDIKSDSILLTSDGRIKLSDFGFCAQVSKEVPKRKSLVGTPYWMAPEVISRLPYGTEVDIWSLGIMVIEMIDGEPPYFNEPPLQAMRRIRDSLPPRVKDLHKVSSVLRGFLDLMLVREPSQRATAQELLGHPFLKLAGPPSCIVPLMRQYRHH
Mitogen-activated protein kinase 1 (Homo sapiens), sequence (P28482 whole entry): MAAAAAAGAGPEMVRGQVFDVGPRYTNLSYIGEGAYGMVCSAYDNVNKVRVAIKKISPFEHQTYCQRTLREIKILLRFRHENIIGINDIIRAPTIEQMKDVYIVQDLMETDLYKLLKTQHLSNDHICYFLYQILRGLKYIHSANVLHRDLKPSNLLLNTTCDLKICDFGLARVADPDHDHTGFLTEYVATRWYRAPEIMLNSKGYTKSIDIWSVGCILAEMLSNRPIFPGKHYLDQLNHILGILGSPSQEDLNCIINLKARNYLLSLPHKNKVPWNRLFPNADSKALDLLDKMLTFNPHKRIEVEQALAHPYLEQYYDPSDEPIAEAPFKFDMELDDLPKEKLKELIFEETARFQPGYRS
MAP kinase-interacting serine/threonine-protein kinase 2 (Homo sapiens), sequence (Q9HBH9 whole entry, looked up): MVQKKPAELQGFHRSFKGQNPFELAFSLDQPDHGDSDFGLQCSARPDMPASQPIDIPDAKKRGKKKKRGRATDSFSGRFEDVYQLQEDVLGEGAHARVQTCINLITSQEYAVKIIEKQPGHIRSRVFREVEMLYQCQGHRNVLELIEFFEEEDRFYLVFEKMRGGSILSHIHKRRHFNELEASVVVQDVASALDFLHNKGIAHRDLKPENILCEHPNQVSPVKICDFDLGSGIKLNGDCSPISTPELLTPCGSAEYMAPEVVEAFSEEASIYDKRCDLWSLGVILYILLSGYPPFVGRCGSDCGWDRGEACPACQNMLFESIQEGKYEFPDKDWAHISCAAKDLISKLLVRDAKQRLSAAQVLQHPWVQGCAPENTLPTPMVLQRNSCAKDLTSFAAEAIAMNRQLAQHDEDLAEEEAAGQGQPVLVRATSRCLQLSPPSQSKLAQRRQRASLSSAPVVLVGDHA
Serine/threonine-protein kinase Nek7 (Homo sapiens), sequence (Q8TDX7 whole entry, looked up): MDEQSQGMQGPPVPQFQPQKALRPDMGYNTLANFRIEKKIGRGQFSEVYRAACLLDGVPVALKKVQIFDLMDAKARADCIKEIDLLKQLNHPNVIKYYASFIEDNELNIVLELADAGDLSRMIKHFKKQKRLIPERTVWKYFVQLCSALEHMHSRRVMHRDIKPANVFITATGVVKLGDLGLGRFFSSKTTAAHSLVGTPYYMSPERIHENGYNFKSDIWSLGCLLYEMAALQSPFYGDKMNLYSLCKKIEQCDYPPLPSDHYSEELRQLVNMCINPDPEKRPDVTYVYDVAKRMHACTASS
Ribosomal protein S6 kinase alpha-1 (Homo sapiens), sequence (Q15418 whole entry): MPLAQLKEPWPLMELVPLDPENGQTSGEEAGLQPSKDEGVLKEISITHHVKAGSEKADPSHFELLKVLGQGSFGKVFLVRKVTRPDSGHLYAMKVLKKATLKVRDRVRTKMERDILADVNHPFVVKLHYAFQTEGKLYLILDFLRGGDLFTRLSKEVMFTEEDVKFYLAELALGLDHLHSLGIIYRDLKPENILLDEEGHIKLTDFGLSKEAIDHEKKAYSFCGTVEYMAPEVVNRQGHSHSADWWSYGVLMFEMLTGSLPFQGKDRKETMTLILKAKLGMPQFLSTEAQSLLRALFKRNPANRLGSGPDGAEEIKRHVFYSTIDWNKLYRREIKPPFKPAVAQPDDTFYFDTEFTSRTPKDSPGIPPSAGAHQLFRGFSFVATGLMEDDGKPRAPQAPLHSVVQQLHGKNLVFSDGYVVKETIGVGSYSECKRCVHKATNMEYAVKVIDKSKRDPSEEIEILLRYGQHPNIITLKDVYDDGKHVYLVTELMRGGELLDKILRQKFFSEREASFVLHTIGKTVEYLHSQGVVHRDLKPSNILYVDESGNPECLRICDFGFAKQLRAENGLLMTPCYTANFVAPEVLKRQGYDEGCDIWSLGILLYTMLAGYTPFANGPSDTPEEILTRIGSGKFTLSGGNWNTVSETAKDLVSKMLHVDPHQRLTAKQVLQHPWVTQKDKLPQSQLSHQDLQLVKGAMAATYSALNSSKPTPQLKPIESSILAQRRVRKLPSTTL
Calcium/calmodulin-dependent protein kinase kinase 2 (Homo sapiens), sequence (Q96RR4 2-588 limits assumed): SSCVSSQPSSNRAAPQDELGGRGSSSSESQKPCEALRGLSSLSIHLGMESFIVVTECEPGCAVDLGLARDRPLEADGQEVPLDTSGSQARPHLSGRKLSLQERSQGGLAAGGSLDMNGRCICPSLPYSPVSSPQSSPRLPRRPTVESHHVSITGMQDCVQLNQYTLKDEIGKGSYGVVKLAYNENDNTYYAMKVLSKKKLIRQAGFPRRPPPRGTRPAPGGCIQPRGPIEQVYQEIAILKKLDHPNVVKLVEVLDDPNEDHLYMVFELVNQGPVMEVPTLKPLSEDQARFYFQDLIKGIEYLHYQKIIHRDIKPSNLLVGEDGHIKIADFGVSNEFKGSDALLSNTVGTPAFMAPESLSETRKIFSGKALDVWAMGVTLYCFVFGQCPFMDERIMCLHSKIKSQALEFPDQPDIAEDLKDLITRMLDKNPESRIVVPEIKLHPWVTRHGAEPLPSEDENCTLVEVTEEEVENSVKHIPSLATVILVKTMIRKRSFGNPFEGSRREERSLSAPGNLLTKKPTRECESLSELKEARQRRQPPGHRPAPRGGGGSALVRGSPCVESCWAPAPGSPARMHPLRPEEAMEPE
MAP kinase-activated protein kinase 3 (Homo sapiens), sequence (Q16644 whole entry, looked up): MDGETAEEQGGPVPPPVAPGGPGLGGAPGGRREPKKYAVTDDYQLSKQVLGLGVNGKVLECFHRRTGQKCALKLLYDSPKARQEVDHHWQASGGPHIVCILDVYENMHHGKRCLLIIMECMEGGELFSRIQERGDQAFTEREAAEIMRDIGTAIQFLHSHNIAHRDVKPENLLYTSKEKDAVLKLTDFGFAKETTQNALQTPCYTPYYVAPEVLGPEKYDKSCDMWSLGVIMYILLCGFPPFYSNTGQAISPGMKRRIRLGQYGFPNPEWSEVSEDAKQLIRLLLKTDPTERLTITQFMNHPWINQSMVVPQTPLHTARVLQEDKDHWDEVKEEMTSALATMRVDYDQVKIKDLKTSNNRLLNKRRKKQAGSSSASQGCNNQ
SRSF protein kinase 1 (Homo sapiens), sequence (Q96SB4 whole entry): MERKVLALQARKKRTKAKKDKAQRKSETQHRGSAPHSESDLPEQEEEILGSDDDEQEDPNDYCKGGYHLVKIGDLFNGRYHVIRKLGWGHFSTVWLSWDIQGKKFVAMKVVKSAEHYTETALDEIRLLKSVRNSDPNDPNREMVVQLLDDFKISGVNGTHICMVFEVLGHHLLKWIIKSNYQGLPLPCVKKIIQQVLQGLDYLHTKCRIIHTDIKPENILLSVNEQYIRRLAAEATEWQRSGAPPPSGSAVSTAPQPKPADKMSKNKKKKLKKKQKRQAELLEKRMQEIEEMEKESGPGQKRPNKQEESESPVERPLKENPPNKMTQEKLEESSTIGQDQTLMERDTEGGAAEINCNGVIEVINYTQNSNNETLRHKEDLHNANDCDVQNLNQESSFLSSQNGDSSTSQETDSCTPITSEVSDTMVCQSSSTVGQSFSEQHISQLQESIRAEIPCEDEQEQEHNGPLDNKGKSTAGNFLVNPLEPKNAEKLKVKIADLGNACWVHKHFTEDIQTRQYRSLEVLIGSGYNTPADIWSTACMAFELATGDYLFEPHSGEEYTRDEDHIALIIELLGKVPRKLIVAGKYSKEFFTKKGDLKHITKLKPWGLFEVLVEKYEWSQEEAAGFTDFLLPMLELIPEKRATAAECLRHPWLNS

Row | SMILES | Activity [1] | Activity [3] | Activity [5] | Activity [7] | Activity ([8]; filed as antagonist) | Activity [10] | Activity [11] | Activity [12] | Activity [13] | Activity [16] | Activity [17] | Activity [18] | Activity [2] | Activity [4] | Activity [6] | Activity [8] | Activity ([9]; filed as antagonist) | Activity [14] | Activity [15] | Activity ([16]; filed as antagonist) | other results
1 | O=C(NCCCNc1nc(Nc2cccc(NC(=O)N3CCCC3)c2)ncc1I)c1cccs1 | 77% | 72% | 69% | 102% | 7% | 95% | 99% | 71% | 86% | 62% | 81% | 74% | – | – | – | – | – | – | – | – | Activity ([2]; filed as antagonist): 19%; Activity ([4]; filed as antagonist): 30%; Activity ([6]; filed as antagonist): 11%; Activity [9]: 55%; Activity ([14]; filed as antagonist): 46%; Activity ([15]; filed as antagonist): 9%
2 | Cn1cc(C2=C(c3cn(CCCSC(=N)N)c4ccccc34)C(=O)NC2=O)c2ccccc21 | 91% | 51% | 104% | 90% | – | 84% | 101% | 92% | 82% | – | 79% | – | 103% | 65% | 84% | 51% | 11% | 59% | 77% | 46% | Activity ([18]; filed as antagonist): 3%
3 | CC(C)CCN1c2nc(Nc3cc(F)c(O)c(F)c3)ncc2N(C)C(=O)C1C (configuration not stated) | 96% | 89% | 92% | 108% | – | 98% | 108% | 85% | 94% | 114% | 90% | 90% | 96% | 73% | 108% | 82% | 1% | 73% | 76% | – | –
4 | CC(C)[C@H](CO)Nc1nc(Nc2cccc(Cl)c2)c2ncn(C(C)C)c2n1 [PURVALANOLA] | – | 79% | 76% | 88% | – | 95% | 105% | 79% | 79% | 85% | 53% | 77% | 98% | 60% | 89% | 70% | – | 95% | 85% | – | Activity ([1]; filed as antagonist): 14%; Activity [9]: 74%
5 | CN(C)C[C@@H]1CCn2cc(c3ccccc32)C2=C(C(=O)NC2=O)c2cn(c3ccccc23)CCO1 | 97% | 59% | 97% | 90% | – | 91% | 104% | 94% | – | – | 79% | – | 101% | 53% | 71% | 92% | 10% | 71% | 92% | 49% | –
6 | Cc1n[nH]c2ccc(-c3cncc(OC[C@@H](N)Cc4c[nH]c5ccccc45)c3)cc12 | 86% | – | 117% | 96% | 28% | 95% | 84% | 64% | 91% | 54% | 96% | – | 80% | – | 67% | – | 32% | 99% | 92% | – | Activity ([3]; filed as antagonist): 3%; Activity ([18]; filed as antagonist): 29%
7 | Cn1c2ccccc2c2c3c(c4c5ccccc5n(CCC#N)c4c21)CNC3=O | 65% | – | – | 95% | 38% | 87% | 98% | – | 92% | – | – | – | – | – | – | – | 6% | – | – | 1% | Activity ([2]; filed as antagonist): 30%; Activity ([3]; filed as antagonist): 50%; Activity ([4]; filed as antagonist): 11%; Activity ([5]; filed as antagonist): 27%; Activity ([12]; filed as antagonist): 41%; Activity ([14]; filed as antagonist): 1%; Activity ([15]; filed as antagonist): 44%; Activity ([17]; filed as antagonist): 6%; Activity ([18]; filed as antagonist): 2%

From ChEMBL document CHEMBL1150976, “The selectivity of protein kinase inhibitors: a further update” (Biochem J, 2007)
